# Assay: recombinant UMI read abundance after kanamycin selection (control-corrected) (log10(CPM+1)); higher = more efficient recombination; extreme values may be limits of the assay; sequences stand for … in AGTGCAGAGAAAATCGGCCAGTTTTCTCTGCCTGCAGTCCGCATGCCGTGGGACCCCTTGGGTTCTAACCTGTTGCCTAGATTTATGCAGCGGACTGCCTTTCTCCCAAAGTGATAAACCGG…AGGTTGGTTTCACT; site = the 11-nt donor
# Outline: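 After plating on IPTG (0.07 mM) plus kanamycin, or unselected, in two replicates, recombinant UMIs were PCR-amplified across the donor–target junction and sequenced. The cells were Escherichia coli co-electroporated with a UMI-tagged donor and donor-binding-loop pair library and a target plasmid with a fixed target and T7-inducible IS621 bridge recombinase. Values are log10(CPM+1), with CPM averaged over replicates and scaled by control-derived factors.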
row,Sequence,recombinant UMI read abundance (log10)
1,GATTAGACATGGACCGGTTTTCCCGGTAATCCGTATTTGCT (site TTGCTCCCTGT),0
2,GATTATCCATGGACCGGTTTTCCCGGTAATCCGTATTTGAT (site GATTATCCTAA),0.0183
3,GATTATCCATGGACCGGTTTTCCCGGTAATCCGTATTTGAT (site GATTATCCTAC),0.0054
4,GATTATCCATGGACCGGTTTTCCCGGTAATCCGTATTTGAT (site GATTATCCTAG),0
5,GATTATCCATGGACCGGTTTTCCCGGTAATCCGTATTTGAT (site GATTATCCTAT),0
6,GATTATCCATGGACCGGTTTTCCCGGTAATCCGTATTTGGT (site GATTATCCTAA),0.017
7,GATTATCCATGGACCGGTTTTCCCGGTAATCCGTATTTGGT (site GATTATCCTAC),0.0163
8,GATTATCCATGGACCGGTTTTCCCGGTAATCCGTATTTGGT (site GATTATCCTAG),0
9,GATTATCCATGGACCGGTTTTCCCGGTAATCCGTATTTGGT (site GATTATCCTAT),0
10,GATTATCCATGGACCGGTTTTCCCGGTAATCCGTATTTGTT (site GATTATCCTAA),0.00783
11,GATTATCCATGGACCGGTTTTCCCGGTAATCCGTATTTGTT (site GATTATCCTAC),0
12,GATTATCCATGGACCGGTTTTCCCGGTAATCCGTATTTGTT (site GATTATCCTAG),0
13,GATTATCCATGGACCGGTTTTCCCGGTAATCCGTATTTGTT (site GATTATCCTAT),0
14,GATTGAACATGGACCGGTTTTCCCGGTAATCCGTATTTGAC (site GATTGAACTGT),0
15,GATTGAACATGGACCGGTTTTCCCGGTAATCCGTATTTGAC (site GATTGCACTGT),0.00522
16,GATTGAACATGGACCGGTTTTCCCGGTAATCCGTATTTGAC (site GATTGGACTGT),0.339
17,GATTGAACATGGACCGGTTTTCCCGGTAATCCGTATTTGAC (site GATTGTACTGT),0
18,GATTGTACATGGACCGGTTTTCCCGGTAATCCGTATTTGCG (site GATTGTACTCG),0.619
19,GATTGTACATGGACCGGTTTTCCCGGTAATCCGTATTTGGG (site GATTGTACTCC),0.0205
20,GATTGTCCATGGACCGGTTTTCCCGGTAATCCGTATTTGAT (site GATTGTCCTAT),1.17
21,GATTTTCCATGGACCGGTTTTCCCGGTAATCCGTATTTGCT (site GATTATCCTAG),0
22,GATTTTCCATGGACCGGTTTTCCCGGTAATCCGTATTTGCT (site GATTCTCCTAG),0
23,GATTTTCCATGGACCGGTTTTCCCGGTAATCCGTATTTGCT (site GATTGTCCTAG),0.014

row,Sequence,recombinant UMI read abundance (log10)
1,GATTTTCCATGGACCGGTTTTCCCGGTAATCCGTATTTGCT (site GATTTTCCTAG),0
2,GCAAAGCCATGGACCGGTTTTCCCGGTAATCCGTATTTGGG (site GCAAAGCCTCC),0.00379
3,GCAAAGCCATGGACCGGTTTTCCCGGTAATCCGTATTTGGG (site GCCAAGCCTCC),0.00875
4,GCAAAGCCATGGACCGGTTTTCCCGGTAATCCGTATTTGGG (site GCGAAGCCTCC),0.00619
5,GCAAAGCCATGGACCGGTTTTCCCGGTAATCCGTATTTGGG (site GCTAAGCCTCC),0.0133
6,GCAACATCATGGACCGGTTTTCCCGGTAATCCGTATTTGCC (site GCAACATCTGG),0.611
7,GCAAGAACATGGACCGGTTTTCCCGGTAATCCGTATTTGAG (site GCAAGAACTCT),2.56
8,GCAATAACATGGACCGGTTTTCCCGGTAATCCGTATTTGGT (site GCAATAACTAC),2.38
9,GCAATCGCATGGACCGGTTTTCCCGGTAATCCGTATTTGAG (site GCAATCGCTCT),2.29
10,GCACAGCCATGGACCGGTTTTCCCGGTAATCCGTATTTGTT (site GCACAGCCTAA),1.47
11,GCACCAACATGGACCGGTTTTCCCGGTAATCCGTATTTGCC (site GCACCAACTGG),0.762
12,GCACCGACATGGACCGGTTTTCCCGGTAATCCGTATTTGAA (site GCACCGACTTT),0.965
13,GCACGAACATGGACCGGTTTTCCCGGTAATCCGTATTTGTC (site ACACGAACTGA),1.48
14,GCACGAACATGGACCGGTTTTCCCGGTAATCCGTATTTGTC (site CCACGAACTGA),2.19
15,GCACGAACATGGACCGGTTTTCCCGGTAATCCGTATTTGTC (site GCACGAACTGA),2.56
16,GCACGAACATGGACCGGTTTTCCCGGTAATCCGTATTTGTC (site TCACGAACTGA),0.552
17,GCACGTGCATGGACCGGTTTTCCCGGTAATCCGTATTTGGC (site GCACGTGCTGC),2.23
18,GCACTCTCATGGACCGGTTTTCCCGGTAATCCGTATTTGGG (site GCACTCTCTCC),0.647
19,GCAGAGTCATGGACCGGTTTTCCCGGTAATCCGTATTTGTA (site GCAGAGTCTTA),3.17
20,GCAGATCCATGGACCGGTTTTCCCGGTAATCCGTATTTGTC (site GCAGATCCTGA),0
21,GCAGCGTCATGGACCGGTTTTCCCGGTAATCCGTATTTGGA (site GCAGCGTCTTC),2.37
22,GCAGGCCCATGGACCGGTTTTCCCGGTAATCCGTATTTGCC (site GCAGGCCCTGG),0.86
23,GCAGTGACATGGACCGGTTTTCCCGGTAATCCGTATTTGCG (site GCAGTGACTCG),2.18

row,Sequence,recombinant UMI read abundance (log10)
1,GCAGTTTCATGGACCGGTTTTCCCGGTAATCCGTATTTGCA (site GCAGTTTCTTG),2.59
2,GCATACTCATGGACCGGTTTTCCCGGTAATCCGTATTTGCA (site ACATACTCTTG),2.41
3,GCATACTCATGGACCGGTTTTCCCGGTAATCCGTATTTGCA (site CCATACTCTTG),2.9
4,GCATACTCATGGACCGGTTTTCCCGGTAATCCGTATTTGCA (site GCATACTCTTG),2.96
5,GCATACTCATGGACCGGTTTTCCCGGTAATCCGTATTTGCA (site TCATACTCTTG),2.61
6,GCATAGTCATGGACCGGTTTTCCCGGTAATCCGTATTTGTT (site GCATAGTCTAA),3.29
7,GCATCGGCATGGACCGGTTTTCCCGGTAATCCGTATTTGAC (site GCATCGGCTGT),2.09
8,GCATGCCCATGGACCGGTTTTCCCGGTAATCCGTATTTGAT (site GCATGCCCTAT),0.197
9,GCATGCCCATGGACCGGTTTTCCCGGTAATCCGTATTTGAT (site GCCTGCCCTAT),0.226
10,GCATGCCCATGGACCGGTTTTCCCGGTAATCCGTATTTGAT (site GCGTGCCCTAT),0.0164
11,GCATGCCCATGGACCGGTTTTCCCGGTAATCCGTATTTGAT (site GCTTGCCCTAT),0.0139
12,GCATGGCCATGGACCGGTTTTCCCGGTAATCCGTATTTGCA (site GAATGGCCTTG),0
13,GCATGGCCATGGACCGGTTTTCCCGGTAATCCGTATTTGCA (site GCATGGCCTTG),0
14,GCATGGCCATGGACCGGTTTTCCCGGTAATCCGTATTTGCA (site GGATGGCCTTG),0.0185
15,GCATGGCCATGGACCGGTTTTCCCGGTAATCCGTATTTGCA (site GTATGGCCTTG),0.0194
16,GCATTACCATGGACCGGTTTTCCCGGTAATCCGTATTTGTC (site GCATTACCTGA),0
17,GCCAACGCATGGACCGGTTTTCCCGGTAATCCGTATTTGAA (site GCCAACGCTTT),1.63
18,GCCAAGGCATGGACCGGTTTTCCCGGTAATCCGTATTTGAG (site GCCAAGGCTCT),1.49
19,GCCACGCCATGGACCGGTTTTCCCGGTAATCCGTATTTGAA (site GCCACGCCTTA),0.00688
20,GCCACGCCATGGACCGGTTTTCCCGGTAATCCGTATTTGAA (site GCCACGCCTTC),0.0229
21,GCCACGCCATGGACCGGTTTTCCCGGTAATCCGTATTTGAA (site GCCACGCCTTG),0
22,GCCACGCCATGGACCGGTTTTCCCGGTAATCCGTATTTGAA (site GCCACGCCTTT),0.0176

# From the supplement of paper PMC11208160
